According to PMC12480552 (Scientific Reports, 2025):
Like-named read-outs stand apart in the source and are kept apart here.

What was measured:
in vivo = conditions: male, rhesus monkey; for Kp / Kp uu: brain
Description: Animals were randomized using the GSK Randomization App 2.0, which is an internal software tool that uses the ‘sample’ function in R to randomly shuffle animal IDs, then assigns them to treatment groups to ensure unbiased allocation.
Before each dose, animals were lightly sedated with an intramuscular injection of ketamine (5–10 mg/kg), and a blood sample was drawn. […] NHPs were euthanized by administering an overdose of injected sodium pentobarbital IV (150–200 mg/kg) and confirmed by thoracotomy and exsanguination. Terminal plasma, cerebrospinal fluid, and brain tissue were collected at necropsy. […] The brain was cut into six roughly 1-cm thick coronal segments before snap-freezing by floating on liquid nitrogen. The right hemispheres of the four interior coronal brain segments were cryosectioned and analyzed by matrix-assisted laser desorption/ionization mass spectrometry imaging (MALDI MSI) to quantitatively assess the tissue distribution of the dosed compounds[40]–[43]. After MALDI MSI analysis, tissue sections were stained with hematoxylin and eosin (H&E) for correlation of ion images with underlying tissue histology.
Brain tissue was weighed in polypropylene tubes, then phosphate-buffered saline (PBS) was added to the tissue sample before homogenization (1:4 wt: vol).
The LC-MS/MS system includes an API-6500 triple quadrupole mass spectrometer (Sciex, Framingham, MA) and an ExionLC system (ExionLC Controller, ExionLC AD Column Oven, ExionLC AD Pump, and ExionLC AD Multiplate Sampler; all from Sciex). Data were acquired and processed using Analyst® 1.7.2 software (Sciex). An Acquity UHPLC BEH C18 analytical column (1.7-µm, 2.1 × 50 mm; Waters, Milford, MA) was applied in sample analysis.
First, the brain tissue partition coefficient Kp, brain was calculated using Eq. (1).
Where Css, brain is the mean steady-state total drug concentration in brain tissue, and Css, plasma is the mean steady-state total drug concentration in plasma (both measured by LC-MS/MS). […] Finally, Kp, uu, brain was calculated using Eq. (2).2 [drawing 2]

[1] = LC-MS/MS bioanalysis of plasma and brain homogenate, mouse model of brain metastasis (MDA231-BrM2-831); format: in vivo, NCr nude mice; conditions: for Kp at 2 h / Kp uu at 2 h / concentration at 2 h: female, NCr nude (CrTac:NCr-Foxn1nu), mouse, oral; for concentration at 2 h: oral once daily 5 days, niraparib 35 mg/kg or olaparib 50 mg/kg, 2 h after final dose
Excerpt: A luciferase-transfected human breast adenocarcinoma cell line (MDA 231-BRM2-831) was used to generate a metastatic brain tumor model in female athymic nude mice. […] NCr nude mice (strain: CrTac: NCr-Foxn1^nu; female; 5–7 weeks old; Taconic Biosciences (Germantown, NY)) were used for these studies. A power analysis was completed by a statistician to determine the appropriate sample sizes for each group to measure a statistically significant. […] Control mice (n = 10) underwent a sham IC procedure (needle insertion into the ventricle without cell injection. All mice were monitored for tumor development by bioluminescence imaging (BLI) approximately once weekly for ~ 45 days, beginning 1 h after cell injection. In vivo BLI was performed at ~ 10 min post-luciferin injection (corresponding to the peak bioluminescent signal) using an IVIS Spectrum-CT system (PerkinElmer, Waltham, MA). Imaging parameters were set to automatic exposure in the Living Image software, while the binning (8) and aperture (open f-stop) remained at the default settings for all BLI acquisitions. The imaging frequency was increased to twice weekly for mice that developed brain metastases (BMs) as indicated by increased bioluminescence in the cranial region. […] The exact tumor size was not measured as an endpoint of this study. […] Two hours after the final dose, mice were euthanized by CO2 asphyxiation. At necropsy, a terminal blood sample was collected via cardia puncture, and the brains were harvested and snap-frozen by floating on liquid nitrogen. […] From each plane, serial tissue sections were collected for MALDI MSI and for H&E staining, and immunohistochemistry (IHC) staining. Tissue trimmings from between each plane were collected, homogenized, and submitted for bioanalysis in addition to the terminal plasma samples.

[2] = Protein binding by rapid equilibrium dialysis, rhesus macaque brain and plasma; conditions: rhesus monkey, pH 7.4
Excerpt: The luciferase-transfected human breast cancer cell line (MDA231-BrM2-831) was purchased from Memorial Sloan Kettering Cancer Center (New York, NY). […] Deuterated olaparib (olaparib-d8) was purchased from Alsachim (Illkirch Graffenstaden, France). Cynomolgus macaque brain tissue (lot #CYN252598), rhesus macaque brain tissue (lot #RHS24901), rhesus macaque plasma (lot #RHS24900), CD1 mouse brain tissue (lot #MSE343926), and CD1 mouse plasma (lot #MSE343926) used in the protein-binding assays were obtained from BioIVT (Westbury, NY).
Brain (diluted 1:4 [5×] in PBS) or plasma (undiluted) were spiked with each test compound and applied to each matrix. Aliquots of each mixture were added to the donor wells of a rapid equilibrium dialysis plate in triplicate, and blank PBS was added to each receiver well, at volumes recommended by the manufacturer. Plates were incubated with shaking at 200 rpm for 4 h at 37 °C. At the end of incubation, samples were collected from each donor and receiver well. Samples were matrix-matched with the addition of an equivalent volume of blank matrix to each receiver sample and blank PBS to each donor sample. Additional samples were collected from each incubation mixture at the beginning (T = 0 min) and end (T = 240 min) of incubation for determination of stability, and matrix-matched with PBS as described above. The resultant samples were extracted by protein precipitation with acetonitrile containing an analytical internal standard, centrifuged, and analyzed by LC-MS/MS.

human P-gp = conditions: MDCKII cells overexpressing human P-gp; cited from earlier work
[3] = 43 patients, phase 0 cohort, 200 or 300 mg once daily 4 days, cited from earlier work
[4] = brain, BM mice (niraparib n = 4, olaparib n = 3), read-out: Group mean (SD) Kp, brain
[5] = brain, BM mice (niraparib n = 4, olaparib n = 3), read-out: Group mean (SD) Kp, uu, brain
[6] = brain, No BM mice (n = 3), read-out: LC-MS/MS Bulk brain tissue, mean (SD)
[7] = brain, No BM mice (n = 3), read-out: Group mean (SD) Kp, brain
[8] = brain, No BM mice (n = 3), read-out: Group mean (SD) Kp, uu, brain
[9] = brain, all mice (BM and no-BM combined), read-out: Mean Kp, brain
[10] = brain, all mice (BM and no-BM combined), read-out: Mean Kp, uu, brain
[11] = plasma, No BM mice (n = 3), read-out: LC-MS/MS Terminal plasma, mean (SD)

Compound | Kp (in vivo; Mean Kp) | Kp uu (in vivo; Mean Kp) | Kp at 2 h [1, 4] | Kp uu at 2 h [1, 5] | concentration at 2 h [1, 6] [ng/g] | Kp at 2 h [1, 7] | Kp uu at 2 h [1, 8] | Kp at 2 h [1, 9] | Kp uu at 2 h [1, 10] | concentration at 2 h [1, 11] [ng/mL] | P-gp substrate status (human P-gp) | also measured
NC(=O)c1cccc2cn(-c3ccc([C@@H]4CCCNC4)cc3)nc12 [Niraparib] | 3.18 | 0.313 | 0.214 | 0.03 | 658 | 0.171 | 0.024 | 0.193 | 0.026 | 3850 | substrates for P-gp | overall mean Kp, uu, brain, niraparib higher than olaparib ([1]; all mice (BM and no-BM combined)): about 1.2 fold; fraction unbound at 4 h, 1 µM ([2]; plasma (undiluted)): 0.366; Kp, tumor ([3]; gadolinium-enhanced tissue): 7.5; Kp, tumor ([3]; nonenhanced tissue): 4.2
O=C(c1cc(Cc2n[nH]c(=O)c3ccccc23)ccc1F)N1CCN(C(=O)C2CC2)CC1 [Olaparib] | 0.041 | 0.026 | 0.102 | 0.047 | 5 | 0.027 | 0.015 | 0.036 | 0.022 | 226 | substrates for P-gp | Kp, brain (in vivo): 0.044; Kp, uu, brain (in vivo): 0.028; Kp (in vivo; Kp): 0.037; Kp uu (in vivo; Kp): 0.024; fraction unbound at 4 h, 1 µM ([2]; brain homogenate): 0.194; fraction unbound at 4 h, 1 µM ([2]; plasma): 0.301
